Structures can show the parent of a compound that is named as a salt.
| melting point | SMILES |
| --- | --- |
| 195 °C | CCCC1=C(C#N)C(c2cccc3nsnc23)c2c[nH]nc2N1 (stereo not drawn) [Example 138, 4-(2,1,3-Benzothiadiazol-4-yl)-5-cyano-4,7-dihydro-6-propyl-2H-pyrazolo[3,4-b]pyridine] |
| 232 °C | N#CC1=C(C2CCCCN2)Nc2n[nH]cc2C1c1cccc(C#N)c1Br.O=C(O)C(F)(F)F (stereo not drawn) |
| 88 to 89 °C | CCCC1=C(C(=O)OCC)C(c2ccccc2Cl)c2cnn(C(=O)OCC)c2N1 (stereo not drawn) [Example 219, Ethyl 4-(2-chlorophenyl)-1-ethoxycarbonyl-4,7-dihydro-6-propyl-1H-pyrazolo[3,4-b]pyridine-5-carboxylate] |
| 169 to 170 °C | CCCC1=C(C(=O)OCC)C(c2cc(OC)ccc2OC)c2c[nH]nc2N1 (stereo not drawn) [Example 53, Ethyl 4-(2,5-dimethoxyphenyl)-4,7-dihydro-6-propyl-2H-pyrazolo[3,4-b]pyridine-5-carboxylate] |
| 192 to 194 °C | CCCC1=C(C(=O)OCC)C(c2ccccc2F)c2c[nH]nc2N1 (stereo not drawn) [Example 26, Ethyl 4-(2-fluorophenyl)-4,7-dihydro-6-propyl-2H-pyrazolo[3,4-b]pyridine-5-carboxylate] |
| 246 °C | CCCN1CCC(C2=C(C#N)C(c3cccc4nonc34)c3c[nH]nc3N2)CC1 (stereo not drawn) [Example 1034, 4-(2,1,3-Benzoxadiazol-4-yl)-5-cyano-4,7-dihydro-6-(1-propylpiperidin-4-yl)-2H-pyrazolo[3,4-b]pyridine] |
| 210 to 215 °C (dec.) | N#CC1=C(C2CCNC2)Nc2n[nH]cc2C1c1ccccc1Cl (stereo not drawn) [Example 1086, 4-(2-Chlorophenyl)-5-cyano-4,7-dihydro-6-(pyrrolidin-3-yl)-2H-pyrazolo[3,4-b]pyridine] |
| 197 °C | CCCC1=C(C(=O)OCC)C(c2ccccc2CCC)c2cn[nH]c2N1 (stereo not drawn) [Example 101, Ethyl 4,7-dihydro-6-propyl-4-(2-propylphenyl)-1H-pyrazolo[3,4-b]pyridine-5-carboxylate] |
| 217 to 221 °C | CCOC(=O)C1=C(C)Nc2n[nH]cc2C1c1ccccc1Cl (stereo not drawn) [Example 1, Ethyl 4-(2-chlorophenyl)-4,7-dihydro-6-methyl-2H-pyrazolo[3,4-b]pyridine-5-carboxylate] |
| 136 to 138 °C | CCCC1=C(C(=O)OCC)C(c2ccc3ccccc3c2)c2c[nH]nc2N1.O=C(O)/C=C\C(=O)O (stereo not drawn) [Example 67, Ethyl 4,7-dihydro-4-(naphthalen-2-yl)-6-propyl-2H-pyrazolo[3,4-b]pyridine-5-carboxylate maleate] |
| > 250 °C | CCCC1=C(C#N)C(c2cccc(C#N)c2Cl)c2c[nH]nc2N1 (stereo not drawn) [Example 184, 4-(2-Chloro-3-cyanophenyl)-5-cyano-4,7-dihydro-6-propyl-2H-pyrazolo[3,4-b]pyridine] |
| 158 °C | N#CC1=C(c2ccccc2)Nc2n[nH]cc2C1c1ccccc1Cl (stereo not drawn) [Example 142, 4-(2-Chlorophenyl)-5-cyano-4,7-dihydro-6-phenyl-2H-pyrazolo[3,4-b]pyridine] |
| 180 °C | CCCC1=C(C(=O)OCC)C(c2cccc3nsnc23)c2c[nH]nc2N1 (stereo not drawn) [Example 112, Ethyl 4-(2,1,3-benzothiadiazol-4-yl)-4,7-dihydro-6-propyl-2H-pyrazolo[3,4-b]pyridine-5-carboxylate] |
| 219 °C | CC(=O)N1CCCC(C2=C(C#N)C(c3cccc4nonc34)c3c[nH]nc3N2)C1 (stereo not drawn) [Example 1032, 6-(1-Acetylpiperidin-3-yl)-4-(2,1,3-benzoxadiazol-4-yl)-5-cyano-4,7-dihydro-2H-pyrazolo[3,4-b]pyridine] |
| 212 °C | CCCCc1[nH]nc2c1C(c1ccccc1Cl)C(C#N)=C(CCC)N2 (stereo not drawn) [Example 304, 3-Butyl-4-(2-chlorophenyl)-5-cyano-4,7-dihydro-6-propyl-2H-pyrazolo[3,4-b]pyridine] |
| 188 to 191 °C | CCCC1=C(C(=O)OCC)C(c2c(OC)ccc3ccccc23)c2c[nH]nc2N1 (stereo not drawn) [Example 68, Ethyl 4,7-dihydro-4-(2-methoxynaphthalen-1-yl)-6-propyl-2H-pyrazolo[3,4-b]pyridine-5-carboxylate] |
| 168 to 169 °C | CCCC1=C(C(=O)OCC)C(c2cc(F)ccc2F)c2c[nH]nc2N1 (stereo not drawn) [Example 49, Ethyl 4-(2,5-difluorophenyl)-4,7-dihydro-6-propyl-2H-pyrazolo[3,4-b]pyridine-5-carboxylate] |
| 202 to 205 °C | CCCC1=C(C(=O)OCC)C(c2ccccc2Cl)c2c[nH]nc2N1 (stereo not drawn) [Example 27, Ethyl 4-(2-chlorophenyl)-4,7-dihydro-6-propyl-2H-pyrazolo[3,4-b]pyridine-5-carboxylate] |

| melting point | SMILES |
| --- | --- |
| 215 °C | COc1ccc(C2=C(C#N)C(c3ccccc3[N+](=O)[O-])c3c[nH]nc3N2)cc1 (stereo not drawn) [Example 157, 5-Cyano-4,7-dihydro-6-(4-methoxyphenyl)-4-(2-nitrophenyl)-2H-pyrazolo[3,4-b]pyridine] |
| > 270 °C | CCCC1=C(C#N)C(c2ccccc2Cl)c2c(n[nH]c2C(C)(C)C)N1 (stereo not drawn) [Example 310, 3-t-Butyl-4-(2-chlorophenyl)-5-cyano-4,7-dihydro-6-propyl-2H-pyrazolo[3,4-b]pyridine] |
| 147 to 149 °C | CCCC1=C(C(=O)OCC)C(c2ccc3c(c2)OCCO3)c2c[nH]nc2N1.O=C(O)/C=C\C(=O)O (stereo not drawn) [Example 80, Ethyl 4-(2,3-dihydro-1,4-benzodioxin-6-yl)-4,7-dihydro-6-propyl-2H-pyrazolo[3,4-b]pyridine-5-carboxylate maleate] |
| 156 to 157 °C | CCCC1=C(C(=O)OCC)C(c2ccccc2Cl)c2cn(C(=O)Oc3ccccc3)nc2N1 (stereo not drawn) [Example 218, Ethyl 4-(2-chlorophenyl)-4,7-dihydro-2-phenoxycarbonyl-6-propyl-2H-pyrazolo[3,4-b]pyridine-5-carboxylate] |
| 263 °C | CCCC1=C(C#N)C(c2cccc3ccccc23)c2c[nH]nc2N1 (stereo not drawn) [Example 135, 5-Cyano-4,7-dihydro-4-(naphthalen-1-yl)-6-propyl-2H-pyrazolo[3,4-b]pyridine] |
| 222 °C | CSc1ccccc1C1C(C#N)=C(c2cccs2)Nc2n[nH]cc21 (stereo not drawn) [Example 243, 5-Cyano-4,7-dihydro-4-(2-methylthiophenyl)-6-(thiophen-2-yl)-2H-pyrazolo[3,4-b]pyridine] |
| 239 °C | CCCC1=C(C#N)C(c2ccccc2Cl)c2c(n[nH]c2-c2cccc(OC)c2)N1 (stereo not drawn) [Example 297, 4-(2-Chlorophenyl)-5-cyano-4,7-dihydro-3-(3-methoxyphenyl)-6-propyl-2H-pyrazolo[3,4-b]pyridine] |
| 243 °C | CS(=O)(=O)N1CCC(C2=C(C#N)C(c3cccc4nonc34)c3c[nH]nc3N2)CC1 (stereo not drawn) [Example 1029, 4-(2,1,3-Benzoxadiazol-4-yl)-5-cyano-4,7-dihydro-6-(1-methanesulfonylpiperidin-4-yl)-2H-pyrazolo[3,4-b]pyridine] |
| 239 °C | CCCC1=C(C#N)C(c2cccc3nocc23)c2c[nH]nc2N1 (stereo not drawn) [Example 331, 4-(2,1-Benzoisoxazol-4-yl)-5-cyano-4,7-dihydro-6-propyl-2H-pyrazolo[3,4-b]pyridine] |
| 230 to 232 °C | CCC1=C(C#N)C(c2ccccc2OC)c2c[nH]nc2N1 (stereo not drawn) [Example 194, 5-Cyano-6-ethyl-4,7-dihydro-4-(2-methoxyphenyl)-2H-pyrazolo[3,4-b]pyridine] |
| 212 °C | CC1=C(C#N)C(c2cccc3nonc23)c2c[nH]nc2N1 (stereo not drawn) [Example 176, 4-(2,1,3-Benzoxadiazol-4-yl)-5-cyano-4,7-dihydro-6-methyl-2H-pyrazolo[3,4-b]pyridine] |
| > 270 °C | CN1CCC(C2=C(C#N)C(c3ccccc3Cl)c3c[nH]nc3N2)CC1 (stereo not drawn) (as salt: trifluoroacetate) [Example 1056, 4-(2-Chlorophenyl)-5-cyano-4,7-dihydro-6-(1-methylpiperidin-4-yl)-2H-pyrazolo[3,4-b]pyridine] |
| 174 °C | CNCCC1=C(C#N)C(c2cccc3nonc23)c2c[nH]nc2N1 (stereo not drawn) [Example 1016, 4-(2,1,3-Benzoxadiazol-4-yl)-5-cyano-4,7-dihydro-6-(2-(N-methylamino)ethyl)-2H-pyrazolo[3,4-b]pyridine] |
| 241 °C | N#CC1=C(c2ccco2)Nc2n[nH]cc2C1c1cccc2nonc12 (stereo not drawn) [Example 170, 4-(2,1,3-Benzoxadiazol-4-yl)-5-cyano-6-(furan-2-yl)-4,7-dihydro-2H-pyrazolo[3,4-b]pyridine] |
| 220 °C | COc1ccccc1C1=C(C#N)C(c2ccccc2OC)c2c[nH]nc2N1 (stereo not drawn) [Example 151, 5-Cyano-4,7-dihydro-4,6-bis-(2-methoxyphenyl)-2H-pyrazolo[3,4-b]pyridine] |
| 250 to 255 °C (dec.) | CCCC1=C(C#N)C(c2cccc([N+](=O)[O-])c2Br)c2c[nH]nc2N1 (stereo not drawn) [Example 189, 4-(2-Bromo-3-nitrophenyl)-5-cyano-4,7-dihydro-6-propyl-2H-pyrazolo[3,4-b]pyridine] |
| > 270 °C | Cl.N#CC1=C(C2CCNCC2)Nc2n[nH]cc2C1c1cccc(C#N)c1Br (stereo not drawn) |
| > 280 °C | CC(=O)N1CCC(C2=C(C#N)C(c3cccc(C#N)c3Br)c3c[nH]nc3N2)CC1 (stereo not drawn) [Example 1051, 6-(1-Acetylpiperidin-4-yl)-4-(2-bromo-3-cyanophenyl)-5-cyano-4,7-dihydro-2H-pyrazolo[3,4-b]pyridine] |

| SMILES | melting point |
| --- | --- |
| CC(C)(C)OC(=O)N1CCOC(C2=C(C#N)C(c3cccc(C#N)c3Br)c3c[nH]nc3N2)C1 (stereo not drawn) [Example 1044, 4-(2-Bromo-3-cyanophenyl)-6-(4-t-butoxycarbonylmorpholin-2-yl)-5-cyano-4,7-dihydro-2H-pyrazolo[3,4-b]pyridine] | 219 °C |
| CN(CC1=C(C#N)C(c2cccc3nonc23)c2c[nH]nc2N1)C(=O)OC(C)(C)C (stereo not drawn) [Example 1020, 4-(2,1,3-Benzoxadiazol-4-yl)-6-((N-t-butoxycarbonyl-N-methylamino)methyl)-5-cyano-4,7-dihydro-2H-pyrazolo[3,4-b]-pyridine] | 207 °C |
| CC(C)(C)OC(=O)N1CCC(C2=C(C#N)C(c3cccc(C#N)c3Br)c3c[nH]nc3N2)CC1 (stereo not drawn) [Example 1036, 4-(2-Bromo-3-cyanophenyl)-6-(1-t-butoxycarbonylpiperidin-4-yl)-5-cyano-4,7-dihydro-2H-pyrazolo[3,4-b]pyridine] | > 270 °C |

— patent US6977262B2, “Dihydropyrazolopyridine compounds and pharmaceutical use thereof” (Mitsubishi Pharma Corporation, priority 2001, dated 2005)
